This is an account of results in PubChem BioAssay (NCI).

The assay deals with MDA-MB-468 breast. Kind of assay: NCI tumour cell line growth inhibition, 48 h.

Where “and” joins values, the source holds several entries; their conditions need not be identical. Identical values can stand only once.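 48-hour exposure; five concentrations; linearly interpolated endpoints. GI50: concentration for 50% inhibition of growth. The concentration for full growth arrest is given as TGI.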

On to `Cc1ccc(C(SCC(N)C(=O)O)(c2ccccc2)c2ccccc2)cc1` (stereo not given), for which the GI50 was 45.3 nM and the TGI was over 49500 nM.

As to `CC(C)n1nc(-c2ccc3oc(N)nc3c2)c2c(N)ncnc21`, the GI50 was < 10 nM and 10.1 nM; the TGI was 64.9 nM and 63.3 nM.

As to `COc1cc(-c2n/c(=C\c3c(O)[nH]c4cc(Cl)ccc34)cc3c2=Nc2ccccc2-3)cc(OC)c1OC`, the GI50 was 3340 nM and the TGI is 20900 nM.

Take `CCCCC(=O)N/N=C/c1c(O)ccc2ccccc12`: the GI50 was 999 nM and the TGI was 11700 nM.

Regarding `COC(=O)/C=C1/SC(N2N=C(c3cccs3)CC2c2ccc(F)cc2)=NC1=O` (stereo not given), the GI50 is 1940 nM and the TGI was determined as 4370 nM.

Turning to `C[C@]1(Cn2ccnn2)C(C(=O)O)N2C(=O)CC2S1(=O)=O` (stereo not given in full), the GI50 was over 100000 nM and the TGI is over 100000 nM.

On to `NCCOc1ccccc1/C=C1\c2ccccc2-c2ccc([N+](=O)[O-])cc21`, for which the GI50 was 1540 nM and the TGI was 3110 nM.

For `CCCCNC(=O)Oc1ccc(/C(=C(/C)Cc2ccc(OC)cc2)c2ccc(OCCN3CCCC3)cc2)cc1`, the GI50 is 1720 nM and the TGI was found to be 3430 nM.

Regarding `CN(C)CC(C(=O)Cc1ccccc1)c1ccccc1` (stereo not given), the GI50 is 494 nM and the TGI stood at 2050 nM.

As for `Cc1cc2nc3cc(C)c(N)cc3[n+](-c3ccccc3)c2cc1N`, the GI50 is 79.8 nM and the TGI was 1120 nM.

For the molecule `Cc1ccc(C2=Nc3c(N)ncnc3NC(c3ccc4c(c3)OCO4)C2)cc1` (stereo not given), the GI50 is 3680 nM and the TGI is over 100000 nM.

Regarding `COc1ccc(/C=C2\CN(Cc3cn(CCNc4ccnc5cc(Cl)ccc45)nn3)C/C(=C\c3ccc(OC)c(OC)c3)C2=O)cc1OC`, the GI50 is 1510 nM and the TGI worked out at 4410 nM.

Consider `CCCCNC(=O)c1cc(NCc2cc(O)ccc2O)ccc1O`, for which the GI50 was 12300 nM and the TGI was 33900 nM.

`COc1ccc2c(c1)CCCN2S(=O)(=O)c1ccccc1[N+](=O)[O-]`: the GI50 is 25700 nM and the TGI was 95100 nM.

For the molecule `Cc1cc(C(=O)O)c(C)n1-c1cccc(C(=O)O)c1`, the GI50 was over 100000 nM and the TGI was over 100000 nM.

Turning to `CN1CCN(c2nc(NCCCNc3ccnc4cc(Cl)ccc34)c3ccccc3n2)CC1`, the GI50 was 2140 nM and the TGI was 6140 nM.

Take `CCC(=O)Nc1ccccc1C#C/C=C\C#Cc1ccccc1C(F)(F)F`: the GI50 was 1980 nM and the TGI was over 14000 nM.

For the molecule `CN(c1ccc(Br)cc1)S(=O)(=O)c1ccc(-c2cnc(C3CC3)o2)cc1`, the GI50 is 41.4 nM.

Regarding `COc1ccc2c(Cl)cc(NC(=O)Nc3c(C)cccc3C)nc2c1`, the GI50 was 84800 nM and the TGI is over 100000 nM.

In the case of `COCCN1CCN(Cc2ccc(-c3n[nH]c4c3C(=O)c3c(NC(=O)NN5CCOCC5)cccc3-4)cc2)CC1`, the GI50 was 19.8 nM and the TGI amounted to 66.9 nM.

On to `COc1cc2ncnc(Nc3ccc4c(cnn4Cc4ccccc4)c3)c2cc1OC`, for which the GI50 was 59.6 nM and the TGI amounted to 584 nM.

Consider `O=C1C(=O)c2ccccc2C(O)=C1CCCc1ccc(C2CCCCCC2)cc1`, for which the GI50 is 397 nM and the TGI turned out to be 17200 nM.

Consider `O=C1Nc2ccccc2/C1=C\c1nc(C2CCN(S(=O)(=O)c3ccc(F)cc3)CC2)n2ccccc12`, for which the GI50 is 3920 nM and the TGI is over 100000 nM.

With `C#C[C@]1(O)CC[C@H]2[C@@H]3CC=C4c5sc(Nc6cc(OC)ccc6OC)nc5CC[C@]4(C)[C@H]3CC[C@@]21C`, the GI50 is 1530 nM and the TGI turned out to be 3960 nM.

With `COc1cc(C2C3=C(COC3=O)Nc3c2ccc2c3CCCC2)cc2c1OCO2` (stereo not given), the GI50 was 28.7 nM and the TGI was found to be 98.6 nM.

`Cc1cc(C(=O)NC(CCC(=O)O)C(=O)O)sc1CCC1CNc2nc(N)[nH]c(=O)c2C1` (stereo not given): the GI50 was 58.4 nM and 83.8 nM; the TGI is over 100000 nM.

Consider `CCCNC(=O)c1ccc(Cl)cc1Cl`, for which the GI50 was over 100000 nM and the TGI was over 100000 nM.

On to `Cc1cc(N2CCCC2)nc(NCc2cc(Nc3ccnc4cc(Cl)ccc34)ccc2F)n1`, for which the GI50 is 1140 nM and the TGI is 2610 nM.

As to `Cc1nc(N)sc1-c1csc(Nc2ccc(C(F)(F)F)cc2)n1`, the GI50 is 2250 nM and the TGI was found to be 8770 nM.

For `N=C(N)c1ccc(-c2ccc(-c3cccs3)s2)s1`, the GI50 is 217 nM and the TGI amounted to 651 nM.

Consider `CN1CCN(Cc2ccc(NC(=O)c3cncc(C#Cc4cncc5nccnc45)c3)cc2C(F)(F)F)CC1`, for which the GI50 is 7060 nM and the TGI came to 15900 nM.

`Cc1[nH]nc2c1N=C(c1ccccc1F)c1cc(C(N)=O)ccc1N2`: the GI50 was 1160 nM and the TGI was determined as 8000 nM.

`OCCNCCCOc1ccc2ncnc(Nc3ccc(Oc4cccc(C(F)(F)F)c4)c(Cl)c3)c2c1`: the GI50 is 626 nM and the TGI turned out to be 2210 nM.

Take `C[C@]12CC[C@H]3[C@@H](C[C@@H]4SC(Nc5ccccc5)=N[C@@]45CC(O)CC[C@]35C)[C@@H]1CCC2O` (stereo not given in full): the GI50 is 1720 nM and the TGI came to 3380 nM.

For the molecule `COc1ccc(Cn2cc3c(c2-c2cc(OC)c(OC)c(OC)c2)CCc2c(CN4CCOCC4)noc2-3)cc1`, the GI50 was 453 nM and the TGI was over 100000 nM.

Consider `Nc1nc(N)c2c(n1)NC(c1ccccc1)C1CCc3ccccc3C1=N2` (stereo not given), for which the GI50 was 473 nM and the TGI amounted to 3250 nM.

As for `COc1cc(-c2cc(/C=C/C(=O)c3ccc(Cl)c(Cl)c3)[nH]n2)cc(OC)c1OC`, the GI50 was 1980 nM and the TGI was found to be 7220 nM.

For `CCOC(=O)c1c(C)nc2c(c1N)CC(=O)N2CCc1ccccc1`, the GI50 is 2390 nM and the TGI turned out to be 30000 nM.

Take `Cn1c2ccccc2c2c3[nH][nH]c(=O)c3c3c4ccccc4[nH]c3c21`: the GI50 was 2280 nM and the TGI stood at 9190 nM.

Regarding `Cc1[nH]c(-c2nc3ccccc3[nH]2)c(C)c1C(=O)NC(C)C1CCCCC1` (stereo not given), the GI50 was 6820 nM and the TGI stood at 28300 nM.

As for `N#Cc1c(N)nc(N)nc1N[C@H](c1nc2c(F)ccc(Cl)c2c(=O)n1-c1cccnc1)C1CC1`, the GI50 is 2040 nM and the TGI came to 13900 nM.

Take `C[n+]1c(-c2ccc(/C=N/NC(=O)c3ccc(C(=O)N/N=C/c4ccc(-c5cn6ccccc6[n+]5C)cc4)cc3)cc2)cn2ccccc21`: the GI50 is 114000 nM and the TGI stood at 326000 nM.

Regarding `CCc1cc2ncc(CN3CCN(c4ccc(C(=O)NC)nc4)CC3)cc2[nH]c1=O`, the GI50 was 13300 nM and the TGI is over 100000 nM.

With `CCCCc1n(Cc2ccc3ccccc3c2)cc[n+]1Cc1ccc2ccccc2c1`, the GI50 is 297 nM and the TGI stood at 1130 nM.

Turning to `COc1cc(N2CCN(C(C)C)CC2)ccc1Nc1nc(Nc2cccc(F)c2C(=O)O)c2cc[nH]c2n1`, the GI50 is over 25000 nM and the TGI was over 25000 nM.

Regarding `c1cncc(C2Nc3cccc4cccc(c34)N2)c1`, the GI50 was 2930 nM and the TGI was determined as 16700 nM.

In the case of `O=[n+]1c2ccccc2n([O-])c2cc(Cl)ccc21`, the GI50 was 1240 nM and the TGI was found to be 4960 nM.

For the molecule `CCN(CC)CCN(Cc1ccc(F)cc1)c1ccc(CO)c(Cl)c1`, the GI50 is 430 nM and the TGI was determined as 1750 nM.
